Measurements reported in patent US9198914B2, “Methods and compositions for modulating RAD51 and homologous recombination” (The University of Chicago, priority 2007, dated 2015).
Entries after “also recorded” stand apart in the source; their conditions may differ.

Columns and labels:
[1] = test system: chicken lymphocyte DT40 cells; experiment: Clonogenic survival study in the presence of radiation; type: cell-based; settings: compound added about 30 minutes after irradiation, 24 hours
Method: Single chicken lymphocyte DT40 cells were irradiated. Thirty minutes later, they were incubated with compound 45488 (also called compound 5253121) for 24 hours. Single cells were then plated (100, 1000, or 10000) in 6-well plates in media. Because DT40 cells are not adherent to plastic surfaces, the media included methylcellulose to provide viscosity. After 7-10 days, the resulting colonies are counted, and survival is reported as a colony-forming ability relative to un-irradiated cells.

human RAD51 [2] = target: T1, human RAD51 (Homo sapiens, UniProt Q06609); experiment: Fluorescence polarization assay for RAD51 filament formation on fluorescein-labeled oligonucleotide; type: biochemical
T1 sequence (Q06609 1-339): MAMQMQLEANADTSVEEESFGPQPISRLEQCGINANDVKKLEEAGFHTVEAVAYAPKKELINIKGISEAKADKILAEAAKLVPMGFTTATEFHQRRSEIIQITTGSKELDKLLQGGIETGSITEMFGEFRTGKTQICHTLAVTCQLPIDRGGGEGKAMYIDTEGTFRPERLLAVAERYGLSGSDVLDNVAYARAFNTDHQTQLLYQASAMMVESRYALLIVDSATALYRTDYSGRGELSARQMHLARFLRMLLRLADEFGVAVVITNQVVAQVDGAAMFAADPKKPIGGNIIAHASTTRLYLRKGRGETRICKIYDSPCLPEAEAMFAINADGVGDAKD
Method: FIGS. 2A-2B. FIG. 2A, top: Schematic of protein filament formation monitored in vitro using a fluorescence polarization assay. FIG. 2A, bottom: Purified RAD51 protein (wild type or mutant F86E) were serially diluted. RecA (New England Biolabs) was used as a positive control. Proteins were added to a 5′terminal fluorescein conjugated oligonucleotide (45 bases of dT) at a 1 μM nucleotide concentration. The mixture was incubated at 37° C. for 30 minutes in 384-well plates containing a reaction buffer (30 mM Tris/acetate pH 7.5, 10 mM Mg^2+/acetate, 2 mM ATP, 0.1 mM DTT, 0.5 μM BSA). Fluorescence polarization was measured with a plate reader (filters: excitation=485 nm, emission=510 nm). FIG. 2B, top: Varying concentrations of 5′terminal fluorescein conjugated oligonucleotide were used to determine the threshold RAD51 concentration.
The assay of Example 2 was used to serve in the screen of a small-molecule chemical library for compounds that stimulate RAD51 filament formation. […] Multiple positive (+RAD51) and negative […] controls were tested, and these readings were tested using the statistical method described by Zhang et al. (1999), which evaluates the suitability of an HT assay. The assay as described has a Z-factor of 0.82, validating it as an excellent assay for HT screening.
The assay of Example 2 was used to serve in the screen of a small-molecule chemical library for compounds that inhibit RAD51 filament formation. […] FP readings were very reproducible with reaction volumes in the 10-100 μl range, and 100 μl was typically used. […] The assay was optimized such that the positive control FP reading was ˜50% of maximal reaction saturation; the RAD51 protein concentration was 0.3 uM and the fluorescein-labeled DNA is at 0.1 uM (nucleotide concentration). […] The average FP readings for positive control and negative control are 344 mP (SD=13.4) and 27 mP (SD=5.3), respectively. These readings were tested using the statistical method described by Zhang et al, which evaluates the suitability of an HT assay (Zhang et al., 1999). […]

yeast DMC1 = target: T2, yeast DMC1 (Saccharomyces cerevisiae, UniProt P25453); experiment: Strand invasion (D-loop) assay with DMC1 in place of RAD51; type: biochemical
T2 sequence (P25453 1-334): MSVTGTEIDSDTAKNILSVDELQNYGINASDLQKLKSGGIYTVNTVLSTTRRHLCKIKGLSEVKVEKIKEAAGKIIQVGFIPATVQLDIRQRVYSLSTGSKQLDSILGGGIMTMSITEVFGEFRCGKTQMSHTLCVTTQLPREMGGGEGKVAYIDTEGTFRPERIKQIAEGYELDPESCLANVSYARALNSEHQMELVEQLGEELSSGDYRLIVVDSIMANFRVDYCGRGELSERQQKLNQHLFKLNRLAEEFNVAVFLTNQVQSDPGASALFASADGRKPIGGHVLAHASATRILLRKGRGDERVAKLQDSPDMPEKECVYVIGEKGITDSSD
Method: (§1) Conditions with scRAD51 additionally contained 110 nM scRAD54.

human RAD51 [3] = target: T1, human RAD51; experiment: Strand invasion (D-loop) assay; type: biochemical; settings: 0.8 μM RAD51; buffer that does not support joint molecule formation (1 mM ATP, 1 mM MgOAc)
Method: FIGS. 6A-6B. Schematic of the strand invasion (D-loop) assay.
as §1

bacterial RecA = bacterial RecA (Escherichia coli, UniProt P0A7G6)
bacterial RecA, sequence (P0A7G6 whole entry): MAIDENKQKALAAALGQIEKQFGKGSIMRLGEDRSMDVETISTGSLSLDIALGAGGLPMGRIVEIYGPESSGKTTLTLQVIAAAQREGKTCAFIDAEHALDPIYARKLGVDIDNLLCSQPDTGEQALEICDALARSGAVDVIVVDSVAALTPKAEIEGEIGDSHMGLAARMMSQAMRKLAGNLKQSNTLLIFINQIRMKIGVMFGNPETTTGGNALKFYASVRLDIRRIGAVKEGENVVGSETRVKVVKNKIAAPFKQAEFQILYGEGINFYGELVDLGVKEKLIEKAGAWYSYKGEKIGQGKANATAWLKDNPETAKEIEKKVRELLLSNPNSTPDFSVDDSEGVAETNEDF
Method: Briefly, 15 μl reaction volumes included a DNA strand exchange protein (0.8 μM) that was pre-incubated for 5 min at 37° C. with 1 μM (nucleotide concentration) ^32P-labeled oligonucleotide in a reaction buffer containing 20 mM Hepes (pH 7.5), 1 mM DTT, 2 mM nucleotide cofactor, and 1 mM MgCl2, and various concentrations of RS-1. For experimental buffer conditions that included calcium, 1 mM CaCl2 was present in addition to (in the case of hRAD51) or in the place of (in the case of RecA and scRAD51) the 1 mM MgCl2. Conditions with scRAD51 additionally contained 110 nM scRAD54. Following this initial binding reaction, 10 μl of 19.75 μM (base pair concentration) supercoiled homolog-containing target plasmid DNA (pRS306) was next added along with sufficient magnesium acetate to give a final concentration of 10 mM. DNA substrates were allowed form a homology dependent association (or ‘D-loop’), and reactions were stopped with SDS and proteinase K. The resulting DNA was separated on 1.3% agarose gels, transferred onto nitrocellulose membranes, analyzed by phosphorimaging, and quantified with ImageJ 1.37v software (NIH).
These experiments were repeated using other recombinase proteins (bacterial RecA and yeast DMC1) in the place of human RAD51.

[4] = target: RecA protein (the bacterial ortholog of RAD51) (Escherichia coli, UniProt P0A7G6); settings: RecA in place of RAD51
RecA protein (the bacterial ortholog of RAD51), sequence (P0A7G6 2-353): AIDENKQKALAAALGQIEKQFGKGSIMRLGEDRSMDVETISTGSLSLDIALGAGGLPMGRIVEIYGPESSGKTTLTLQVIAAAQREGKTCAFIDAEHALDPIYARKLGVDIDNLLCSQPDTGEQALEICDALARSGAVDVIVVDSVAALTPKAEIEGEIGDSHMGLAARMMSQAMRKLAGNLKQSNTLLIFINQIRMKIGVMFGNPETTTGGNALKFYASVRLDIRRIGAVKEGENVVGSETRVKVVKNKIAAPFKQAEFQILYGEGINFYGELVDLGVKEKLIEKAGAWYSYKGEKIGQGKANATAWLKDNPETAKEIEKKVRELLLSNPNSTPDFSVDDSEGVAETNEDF
Method: RAD51 filament formation can also be studied using oligonucleotides that are end-labeled with a fluorescent tag. Binding of proteins to this substrate DNA can be detected as an increase in anisotropy (or polarization) of the fluorescent tag. […] In this example, this method was modified so that very small sample volumes (30 μl) can be monitored in a high-throughput scale, using 384-well plates and a fluorescent plate reader. […] By varying the amount of substrate DNA, a threshold of approximately 0.1 μM RAD51 protein is required for in vitro filament formation in this system.
A naïve 10,000 compound library of small molecules (Chembridge DIVERSet collection) was screened. A ‘mixed compound’ screening strategy was used, wherein each reaction tested a mixture of 8 compounds.

For `O=C(Nc1ccc(Br)cc1)c1ccc(Br)c(S(=O)(=O)NCc2ccccc2)c1` [compound 45488], the “protection of cells from radiation (colony-forming ability)” value [1] was “protects the cells from radiation damage”, the “stability of RAD51 filaments in high salt” value (human RAD51 [2]; buffers containing high salt concentrations) was “protects these filaments from buffers containing high salt concentrations; also recorded: stabilizes RAD51 filaments in the presence of high salt concentrations” and the “effect on RAD51 filament formation” value (human RAD51 [2]; compound at 20 μM) was “enhances filament formation”. The “effect on RAD51 filament formation” value (human RAD51 [2]; further study) was “enhances RAD51 filament formation”, the “effect on strand invasion by DMC1” value (yeast DMC1) was “some inhibition” and the “joint molecule formation / DNA strand invasion activity of RAD51” value (human RAD51 [3]) was “capable of stimulating DNA strand invasion activity of RAD51; also recorded: concentration dependent increase in joint molecule formation”. For the same molecule, the “effect on strand invasion by RecA” value (bacterial RecA) was “no effect” and the “stimulation of RecA filament formation” value [4] was “no stimulation of filament formation”.
